ChEMBL document CHEMBL1201862, “PubChem BioAssay data set” (2004)
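The compound was tested at five concentrations on cells cultured in 96-well plates, with a 48-hour exposure period. Abbreviation: GI50, concentration required for 50% inhibition of growth.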 Activity calls are given as the source filed them. Cut-off read from the data, not from the text of the source: active = GI50 up to about 1.1 µM and inactive = higher.

Key:
Experiment in all cases: growth of human tumour cells (NCI), 48 h
ACHN = system: ACHN
DU-145 = system: DU-145
HCT-116 = system: HCT-116
HL-60 = system: HL-60
HOP-62 = system: HOP-62
HOP-92 = system: HOP-92
HT-29 = system: HT-29
K562 = system: K562
MDA-MB-435 = system: MDA-MB-435
NCI-H23 = system: NCI-H23
NCI-H522 = system: NCI-H522
OVCAR-5 = system: OVCAR-5
RPMI-8226 = system: RPMI-8226
RXF 393 = system: RXF 393
SF-539 = system: SF-539
SK-OV-3 = system: SK-OV-3
U-251 = system: U-251
UACC-257 = system: UACC-257
OVCAR-8 = system: OVCAR-8
SF-295 = system: SF-295

Measured: GI50

CCOC(=O)NC(NCC(O)c1ccccc1)(C(F)(F)F)C(F)(F)F (centres undefined)
inactive: ACHN > 100 µM | DU-145 > 100 µM | HCT-116 > 100 µM | HL-60 > 100 µM | HOP-62 > 100 µM | HOP-92 > 100 µM | HT-29 > 100 µM | K562 > 100 µM | MDA-MB-435 > 100 µM | NCI-H23 > 100 µM | NCI-H522 > 100 µM | OVCAR-5 > 100 µM | RPMI-8226 > 100 µM | RXF 393 43.4 µM | SF-539 > 100 µM | SK-OV-3 > 100 µM | U-251 > 100 µM | UACC-257 > 100 µM

Cc1cc(C)c2cc(N)c(Cl)nc2n1
inactive: ACHN > 100 µM | DU-145 > 100 µM | HCT-116 > 100 µM | HL-60 > 100 µM | HOP-92 > 100 µM | HT-29 63.5 µM | MDA-MB-435 > 100 µM | NCI-H23 > 100 µM | NCI-H522 18.7 µM | OVCAR-5 > 100 µM | OVCAR-8 > 100 µM | RPMI-8226 > 100 µM | RXF 393 > 100 µM | SF-295 > 100 µM | SF-539 > 100 µM | SK-OV-3 > 100 µM | U-251 99.5 µM | UACC-257 > 100 µM

Cc1ccc(CSC(=N)Nc2ccccc2)cc1C
inactive: ACHN 33.3 µM | DU-145 20.7 µM | HCT-116 16.6 µM | HL-60 30.3 µM | HOP-62 23.7 µM | HOP-92 16 µM | HT-29 19.1 µM | K562 21.2 µM | MDA-MB-435 15.2 µM | NCI-H23 22.9 µM | NCI-H522 15.8 µM | OVCAR-5 20.2 µM | OVCAR-8 19 µM | RPMI-8226 22.5 µM | RXF 393 15.7 µM | SF-295 25 µM | SF-539 22.9 µM | SK-OV-3 24.8 µM | U-251 16.1 µM | UACC-257 17.4 µM

COc1ccc(P2(=S)SP(=S)(c3ccc(Cl)cc3)S2)cc1 (centres undefined)
inactive: ACHN > 100 µM | DU-145 > 100 µM | HCT-116 > 100 µM | HL-60 > 100 µM | HOP-62 > 100 µM | HOP-92 > 100 µM | HT-29 > 100 µM | MDA-MB-435 > 100 µM | NCI-H23 > 100 µM | NCI-H522 > 100 µM | OVCAR-5 > 100 µM | OVCAR-8 > 100 µM | RPMI-8226 > 100 µM | RXF 393 > 100 µM | SF-295 > 100 µM | SF-539 > 100 µM | SK-OV-3 > 100 µM | U-251 > 100 µM | UACC-257 > 100 µM

O[C@@H]1C[C@H]2N3CC[C@@]2(c2cc4c(cc2C3)OCO4)[C@H]2O[C@@H]12
inactive: ACHN > 100 µM | DU-145 > 100 µM | HCT-116 > 100 µM | HL-60 > 100 µM | HOP-62 > 100 µM | HOP-92 > 100 µM | HT-29 > 100 µM | K562 > 100 µM | MDA-MB-435 > 100 µM | NCI-H23 > 100 µM | NCI-H522 > 100 µM | OVCAR-5 > 100 µM | OVCAR-8 > 100 µM | RPMI-8226 > 100 µM | RXF 393 > 100 µM | SF-295 > 100 µM | SK-OV-3 > 100 µM | U-251 > 100 µM | UACC-257 90.4 µM
active: SF-539 0.0178 µM

CC1=C(C(=O)Nc2ccccc2)C(c2ccc(C)o2)C(C#N)=C(SCc2ccccc2)N1 (centres undefined)
inactive: ACHN > 100 µM | DU-145 > 100 µM | HCT-116 33.3 µM | HL-60 17.7 µM | HOP-62 > 100 µM | HOP-92 5.25 µM | HT-29 34.9 µM | K562 14.4 µM | MDA-MB-435 4.58 µM | NCI-H23 > 100 µM | NCI-H522 9.55 µM | OVCAR-5 > 100 µM | OVCAR-8 > 100 µM | RPMI-8226 25.1 µM | RXF 393 > 37.6 µM | SF-295 96.2 µM | SF-539 > 100 µM | SK-OV-3 > 100 µM | U-251 > 100 µM | UACC-257 > 100 µM

N#Cc1cc2cc3c4c(c2oc1=O)CCCN4CCC3
inactive: ACHN > 100 µM | DU-145 > 100 µM | HCT-116 > 100 µM | HL-60 > 100 µM | HOP-62 > 100 µM | HOP-92 > 100 µM | HT-29 > 100 µM | K562 > 100 µM | MDA-MB-435 > 100 µM | NCI-H23 > 100 µM | NCI-H522 > 100 µM | OVCAR-5 > 100 µM | OVCAR-8 > 100 µM | RPMI-8226 > 100 µM | RXF 393 > 100 µM | SF-295 > 100 µM | SF-539 > 100 µM | SK-OV-3 > 100 µM | U-251 > 100 µM | UACC-257 > 100 µM

Fc1ccc2nc3n(c2c1)C(c1c(F)cccc1F)SC3 (centres undefined)
inactive: ACHN 67.9 µM | DU-145 > 100 µM | HCT-116 24.5 µM | HL-60 17.7 µM | HOP-62 > 100 µM | HOP-92 46 µM | HT-29 33.3 µM | MDA-MB-435 40.5 µM | NCI-H23 55 µM | NCI-H522 28.1 µM | OVCAR-5 8.69 µM | OVCAR-8 65.6 µM | RPMI-8226 60.4 µM | RXF 393 53.7 µM | SF-295 46 µM | SF-539 > 100 µM | SK-OV-3 54.8 µM | U-251 76.4 µM | UACC-257 47.8 µM

Clc1cccc(Cl)c1C1ON=C(c2ccccc2)N1C12CC3CC(CC(C3)C1)C2 (centres undefined)
inactive: ACHN 11.2 µM | DU-145 76.9 µM | HCT-116 10.9 µM | HL-60 3.3 µM | HOP-62 31.6 µM | HOP-92 13.3 µM | HT-29 29.1 µM | K562 6.7 µM | MDA-MB-435 17.9 µM | NCI-H23 31 µM | NCI-H522 32.2 µM | OVCAR-5 > 100 µM | OVCAR-8 32.7 µM | RPMI-8226 6.64 µM | RXF 393 39.1 µM | SF-295 > 100 µM | SF-539 66.1 µM | SK-OV-3 98.2 µM | U-251 62.5 µM | UACC-257 3.29 µM

C(=C\c1ccccc1)/COc1ccccc1C(N1CCOCC1)n1nc2ccccc2n1 (centres undefined)
active: HL-60 0.352 µM | MDA-MB-435 0.365 µM
inactive: ACHN 7.98 µM | DU-145 5.85 µM | HCT-116 5.31 µM | HOP-62 4.71 µM | HOP-92 5.15 µM | HT-29 3 µM | K562 1.19 µM | NCI-H23 5.35 µM | NCI-H522 22 µM | OVCAR-5 14.1 µM | OVCAR-8 3.5 µM | RPMI-8226 2.92 µM | RXF 393 3.94 µM | SF-295 8.95 µM | SF-539 2.59 µM | SK-OV-3 32.4 µM | U-251 3.08 µM | UACC-257 5.51 µM
